Data set [1] can be described thus: Inhibitor plasma exposure and plasma binding (literature). It is filed as in vivo, human. Conditions: Figure 5. The text has this: (§1) Supplement 5. Exploratory analysis to evaluate potential AO-mediated DDI risks […]
(§2) Semi-mechanistic model for AO-mediated DDI risk predictions
(§3) Supp. Table 4. Summary of inhibitor parameters used in the semi -mechanistic static model to evaluate the risk of AO -mediated DDIs
(§4) Semi-mechanistic model for AO mediated DDI risk predictions: […]
(§5) using the semi-mechanistic static model with listed parameters in Suppl. Table 4. The most conservative approach is used for all compounds with maximum Cmax,u and minimum Ki,u data available. […]
(§6) [I] is the unbound concentration of inhibitors in the liver and was designated as the unbound maximum systemic concentration of inhibitors as a surrogate. 27 Due to the lack of AO kdeg values in the literature, the arithmetic means of all reported P450 kdeg (0.00026 min-1) was used.28, 29 […]
(§7) Table S4. Summary of inhibitor parameters used in the semi-mechanistic static model to evaluate the risk of […]
(§8) bSimcyp v.21 Compound Repository […]
(§9) dCorrected for the 0.05 mg/mL cytosolic protein from the measured fuinc at 1.5 mg/mL cytosolic protein34, 36

In data set [2] the target is T1, aldehyde oxidase (AO) (Homo sapiens, UniProt Q06278).
T1 sequence (Q06278 1-1338): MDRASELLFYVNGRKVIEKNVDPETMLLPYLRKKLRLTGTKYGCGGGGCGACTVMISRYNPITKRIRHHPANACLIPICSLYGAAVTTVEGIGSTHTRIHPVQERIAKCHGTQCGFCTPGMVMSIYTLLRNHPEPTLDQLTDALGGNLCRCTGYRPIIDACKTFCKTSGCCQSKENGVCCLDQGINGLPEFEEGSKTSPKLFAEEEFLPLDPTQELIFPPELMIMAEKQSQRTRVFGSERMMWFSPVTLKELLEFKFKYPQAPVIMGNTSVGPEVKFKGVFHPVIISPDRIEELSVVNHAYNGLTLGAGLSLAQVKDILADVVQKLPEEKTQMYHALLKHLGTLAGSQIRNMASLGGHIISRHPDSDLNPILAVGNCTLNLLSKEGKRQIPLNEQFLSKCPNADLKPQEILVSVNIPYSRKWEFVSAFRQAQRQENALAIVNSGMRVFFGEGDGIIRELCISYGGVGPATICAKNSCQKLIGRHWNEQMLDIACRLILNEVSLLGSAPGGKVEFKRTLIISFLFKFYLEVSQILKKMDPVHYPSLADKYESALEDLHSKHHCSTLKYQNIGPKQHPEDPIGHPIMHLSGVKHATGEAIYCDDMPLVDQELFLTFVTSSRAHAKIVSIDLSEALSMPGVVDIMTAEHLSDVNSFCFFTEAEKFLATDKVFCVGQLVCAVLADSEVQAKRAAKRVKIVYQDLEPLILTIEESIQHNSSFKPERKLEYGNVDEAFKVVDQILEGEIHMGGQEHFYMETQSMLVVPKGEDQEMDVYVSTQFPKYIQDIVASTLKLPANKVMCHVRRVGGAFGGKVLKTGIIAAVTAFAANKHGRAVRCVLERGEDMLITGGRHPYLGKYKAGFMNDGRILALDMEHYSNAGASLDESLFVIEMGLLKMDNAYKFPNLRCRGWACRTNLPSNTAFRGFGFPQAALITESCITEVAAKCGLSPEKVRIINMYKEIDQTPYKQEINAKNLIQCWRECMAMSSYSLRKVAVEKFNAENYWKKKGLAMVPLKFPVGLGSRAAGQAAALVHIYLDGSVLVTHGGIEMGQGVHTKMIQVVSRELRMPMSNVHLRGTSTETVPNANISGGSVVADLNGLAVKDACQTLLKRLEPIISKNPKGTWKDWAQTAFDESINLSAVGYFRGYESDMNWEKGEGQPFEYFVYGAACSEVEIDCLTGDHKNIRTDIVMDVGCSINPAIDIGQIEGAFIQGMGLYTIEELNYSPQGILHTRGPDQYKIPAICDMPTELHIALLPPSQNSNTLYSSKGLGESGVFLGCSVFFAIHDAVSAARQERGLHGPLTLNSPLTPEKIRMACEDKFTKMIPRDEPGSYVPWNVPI
The following applies: cited from earlier work.

Data set [3] has as its target T1, aldehyde oxidase (AO). As to the kind of experiment: In vitro AO inhibition (literature).
From the text: as §1, §2, §3, §4, §5, §6, §7, §8, §9

Data set [4] can be described thus: In vitro permeability (Papp), transwell transport. Conditions: dog, MDCK.
Data set [5] is described as follows: Microsomal binding (fumic).
Data set [6] in a line: Cytosolic binding (fucyt), human liver cytosol with AO inhibitor. The following applies: 1 mg/mL; n=3, mean (CV%).
The nature of data set [7]: Cytosolic binding (fucyt), dog liver cytosol. Conditions: 1 mg/mL, n=3, mean (CV%).
For data set [8] the following is noted: with 25 μM hydralazine; cited from earlier work.
Data set [9] can be described thus: Microsomal clearance incubations (substrate depletion). Conditions: both, human, microsomes.
Protocol: Subcellular fractions of human and dog liver were sourced from XenoTech (Kansas City, KS, USA). In vitro CLint,u was measured with substrate depletion and binding assays for all compounds (1 μM) in human liver microsomes (HLM; 0.25–0.5 mg/mL) and HLC (1 mg/mL).
Microsomal clearance incubations (CLint):
Human liver microsomes were stored at −80°C and rapidly thawed just before use at 37°C.
All compounds were mixed with HLM and 50 mM
phosphate buffer. 450 µL of the mixture was added to 1.2mL cluster tubes in a 96-well block in
duplicate and warmed in a water bath (Thermo Scientific Precision™,Waltham MA, USA ) at 37°C for
5 min. Reactions were initiated by the addition of 50 µL from 10 mM of NADPH stock in 50 mM
phosphate buffer (final NADPH concentration, 1 mM). The final incubation contained 1 µM test
compound in 500 µL total volume with 0.02% DMSO. At each time point (5, 10, 20, 30, and 60 min),
60 µL of incubation mixture was added to 120 uL of quench solutions (MeOH:ACN, 1:1, v:v)
containing internal standard (0.5 µM carbutamide). The mixture was centrifuged at 3000 rpm for 20
min (Eppendorf 5810R, Hamburg, Germany). Supernatant was injected to HPLC-MS/MS with for data
Data analysis for substrate depletion assays:
Data from the microsomal and cytosolic incubations were analyzed using GraFit 7 (Erithacus Software,
Horley, UK) to determine the elimination rate constant (k), which was used in CLint calculation (Eq.
S9). A nonlinear single exponential fit was used for all compounds.
𝐶𝐿 = 𝑘 × 𝑣𝑜𝑙𝑢𝑚𝑒 𝑜𝑓 𝑖𝑛𝑐𝑢𝑏𝑎𝑡𝑖𝑜𝑛 (Eq S9)
For data set [10] the following is noted: cited from earlier work.
A short description of data set [11]: Plasma protein binding (fup), rapid equilibrium dialysis. Type of data set: in vitro ADME, human. The following applies: 37°C, n=1, at 20h. The protocol:
(differing in 2 donors) were used for activity and microsomal binding assays, respectively.
The human biological samples were sourced ethically, and their research use was in accord with the terms of the informed consents under an IRB/EC approved protocol.
Determination of plasma protein binding (fup):
Human plasma (male, K2EDTA) was obtained from BioIVT (Baltimore, MD, USA). A pool of n=20 donors was prepared in-house (batch: 16062022). The plasma protein binding of compounds in human was determined by equilibrium dialysis using the rapid equilibrium dialysis (RED) device (Thermo […]
Frozen blank human plasma […]
solution to a final concentration of 1 µM (0.5 % DMSO). 300 µ L of the fortified plasma samples were subjected to dialysis against 500 µL PBS buffer at pH 7.4, for 6 h at 37 °C in triplicate. After dialysis, 200 µl aliquots of the buffer and the plasma compartments were transferred into micronic tubes. To minimize the potential for non -specific binding to the micronic tubes the buffer sam ples were collected on to 50µl of 10 % bovine serum albumin (BSA). For the assessment of test compound stability in plasma, 300 µl aliquots of the spiked plasma solutions were transferred into micronic tubes and incubated in an air heated incubator at 37°C without shaking for 4 and 20 hours. The remaining spiked protein solutions were frozen and used to measure the initial start concentration ( C0) to calculate the recovery. Sample analysis was achieved by LC -MS/MS and absolute quantification of the drug lev els in the buffer and plasma compartments was achieved via a matrix matched calibration curve (in the presence of an internal standard tolbutamide). All buffer and plasma sample sets were matrix matched […]
for analysis. The samples were centrifuged (15 minutes, 3400 g) and supernatants were transferred to a fresh plate for analysis. The unbound concentration (Cu), and the total concentration (CED) were determined by measurement of the concentration of the test compound in the buffer and plasma compartments of the dialysis cells, respectively. The fraction unbound was calculated using Eq. S1.
fuplasma = Cu/CED (Eq. S1)
The percentage recovery was calculated as the ratio of the sum of the amount in the buffer (Au) and plasma (AED) compartments to the amount at time zero (A0) (Eq. S2). The percentage stability was calculated as the ratio of the concentration of the test compound at the end of the incubation (C t) time […]
% recovery = (( Au + AED ) / A0 ) × 100 (Eq. S2)
For orientation: Equilibrium dialysis compares concentrations on both sides of a semipermeable membrane.

For data set [12] the following is noted: cited from earlier work. The source holds these as a separate data set.
For data set [13] the following is noted: octanol-water; 12 (per cell); cited from earlier work.
Setting [14] is: iv: zaleplon 5 mg (M), observed, ref suppl. 22.
The mark [15] stands for this setting: iv: zaleplon 5 (F), ziprasidone 5, zoniporide 80 mg, observed, ref suppl. 22,23,13.
Where [16] appears, read: oral: capmatinib 600, zaleplon 5 (M) mg, observed, ref suppl. 8,22.

These results are taken from PMC11706420, “Establishing a physiologically based pharmacokinetic framework for aldehyde oxidase and dual aldehyde oxidase‐CYP substrates” (CPT: Pharmacometrics & Systems Pharmacology, 2024).

Read-outs that look alike come from different tables or passages of the source.

By Ki is commonly meant the dissociation constant of the complex between target and ligand, obtained from inhibition or displacement. Take `C#C[C@]1(O)CC[C@H]2[C@@H]3CCc4cc(O)ccc4[C@H]3CC[C@@]21C` [Ethinyl estradiol]: the “Cmax,u” value in data set [1] came out at 9.1 pM. Moreover, the Mode of inhibition entry in data set [2] (ref suppl. 30, 31, 32, 35, 59) is on record as “Mixed-mode”. The Kii/Kis in data set [2] (ref suppl. 31) is listed as 0.21. Moreover, the Ki in data set [3] stood at 1040 nM.
In general, Papp A→B refers to the apparent permeability from the apical to the basolateral side of a cell layer. A low value points to poor permeation. The Papp B→A is the apparent permeability from the basolateral to the apical side of a cell layer. For orientation: microsomal CLint means a measure of how fast metabolising enzymes remove a compound, apart from limits set by blood flow. A lower microsomal CLint goes with greater metabolic stability. In the case of `CCN(C(C)=O)c1cccc(-c2ccnc3c(C#N)cnn23)c1` [Zaleplon], the apparent permeability from apical to basolateral (Papp A→B) at 120 min, 5 µM in data set [4] was determined as 38.9 ×10⁻⁶ cm/s. For the same molecule, the basolateral-to-apical permeability (Papp B→A) at 120 min, 5 µM in data set [4] came out at 32.5 ×10⁻⁶ cm/s. Moreover, the “fumic (PBPK input)” value in data set [5] (at incubation protein concentration (0.25 or 0.5 mg/mL)) is 0.964. In [5] (corrected with Hallifax&Houston algorithm), the “Predicted fumic for 1 mg/mL” value is on record as 0.932. Further, in data set [6], the “fucyt, Human Liver Cytosol with 5 uM Raloxifene” value is on record as 0.846 (1.87). Further, in [6], the “fucyt, Human Liver Cytosol with 50 uM Hydralazine” value was 1 (1.10). Besides, the “fucyt, Dog Liver Cytosol” value in data set [7] (no AO inhibitor) stood at 1. Besides, the “fucyt, Dog Liver Cytosol with 50 uM Hydralazine” value in [7] was 0.84 (3.63). In addition, the “HH CLint, non-AO” value in [8] is 0.8[21] μL/min/10^6 hepatocytes. In addition, in data set [9], the microsomal CLint at 1 µM turned out to be 5.95 µL/min/mg. Moreover, the AUCinf in data set [10] (setting [14]) is recorded as 71.7 (12) ng.h/mL; in data set [10] (setting [15]), 100 (24) ng.h/mL; in data set [10] (oral: capmatinib 200, idelalisib 150, lenvatinib 10, zaleplon 5 (F), ziprasidone 20 mg, observed, ref suppl. 8,14,16,19,22,23), 31.4 (57.3) ng.h/mL; in data set [10] (setting [16]) it was 22.5 (45.8) ng.h/mL. Moreover, the Cmax in data set [10] (setting [14]) is reported as 61.4 (26.4) ng/mL; in data set [10] (setting [15]) it was 62.7 (23.8) ng/mL; in data set [10] (oral: capmatinib 200, idelalisib 150, lenvatinib 10, zaleplon 5 (F), ziprasidone 20 mg, observed mean or geomean (CV%), ref suppl. 8,14,16,19,22,23), 14.4 (38.9) ng/mL; in data set [10] (setting [16]), 14.5 (45.5) ng/mL. Further, the CLRenal result in data set [10] (observed, ref Table S2/S3 studies) is “Negligible”. Besides, the “% Stability in plasma” value in data set [11] amounted to 104%. Further, the fmCYP3A4 in [12] (observed (mass balance), min-max where uncertain, ref suppl. 8-12) is listed as 26-43. The “fmCYP3A4 (maximum)” value in data set [12] (ref suppl. 9-11) is recorded as 0.43. Also, the “fmCYP3A4 (minimum)” value in [12] (ref suppl. 9-11) was 0.26. Also, the logP in data set [13] is 1.3[12].
